Patent publication US20250177359A1, “COMPOUNDS FOR USE IN THE TREATMENT OF CANCER AND INFLAMMATORY CONDITIONS” (priority 2022, published 2025)
pIC50: −log10 of the molar value. Like-named read-outs stand apart in the source and are kept apart here.

Tests used:
TNKS1 = target: T1, TNKS1 (Homo sapiens, UniProt O95271); assay: Activity assay measuring NAD+ consumption, TNKS1; type: biochemical; conditions: Table 4
T1 sequence (O95271 1-1327): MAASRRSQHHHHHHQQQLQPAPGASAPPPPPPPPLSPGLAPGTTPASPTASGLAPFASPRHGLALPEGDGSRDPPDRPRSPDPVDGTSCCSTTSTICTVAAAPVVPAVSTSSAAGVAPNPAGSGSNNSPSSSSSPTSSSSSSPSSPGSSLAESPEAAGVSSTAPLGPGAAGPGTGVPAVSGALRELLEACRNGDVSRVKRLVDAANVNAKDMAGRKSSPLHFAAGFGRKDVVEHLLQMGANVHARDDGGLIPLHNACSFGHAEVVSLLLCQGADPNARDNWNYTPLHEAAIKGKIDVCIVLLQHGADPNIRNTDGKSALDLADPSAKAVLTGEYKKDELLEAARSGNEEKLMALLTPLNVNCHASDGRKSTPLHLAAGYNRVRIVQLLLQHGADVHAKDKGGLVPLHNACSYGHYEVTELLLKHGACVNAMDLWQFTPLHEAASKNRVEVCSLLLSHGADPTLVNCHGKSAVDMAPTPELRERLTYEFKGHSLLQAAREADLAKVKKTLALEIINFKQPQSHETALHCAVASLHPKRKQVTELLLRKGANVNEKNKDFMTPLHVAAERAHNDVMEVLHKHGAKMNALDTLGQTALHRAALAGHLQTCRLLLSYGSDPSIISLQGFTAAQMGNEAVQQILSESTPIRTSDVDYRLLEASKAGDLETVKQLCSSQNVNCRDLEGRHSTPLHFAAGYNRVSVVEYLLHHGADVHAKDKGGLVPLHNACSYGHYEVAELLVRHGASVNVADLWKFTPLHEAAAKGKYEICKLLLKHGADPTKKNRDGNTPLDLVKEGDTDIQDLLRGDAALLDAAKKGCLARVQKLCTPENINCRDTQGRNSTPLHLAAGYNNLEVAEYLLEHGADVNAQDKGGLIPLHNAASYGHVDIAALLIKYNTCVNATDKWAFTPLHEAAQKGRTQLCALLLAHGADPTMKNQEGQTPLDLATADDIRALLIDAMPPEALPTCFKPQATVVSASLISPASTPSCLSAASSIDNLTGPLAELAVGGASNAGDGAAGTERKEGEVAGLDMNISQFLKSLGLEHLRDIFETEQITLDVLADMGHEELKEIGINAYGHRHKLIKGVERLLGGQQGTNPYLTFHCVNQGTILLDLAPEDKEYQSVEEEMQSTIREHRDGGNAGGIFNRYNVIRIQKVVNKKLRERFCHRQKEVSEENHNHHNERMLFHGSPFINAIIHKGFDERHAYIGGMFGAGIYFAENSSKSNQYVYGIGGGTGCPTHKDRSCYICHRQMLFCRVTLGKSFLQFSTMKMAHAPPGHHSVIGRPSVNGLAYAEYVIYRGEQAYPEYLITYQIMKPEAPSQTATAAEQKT
Experimental: All starting materials, reagents, and solvents were purchased from common commercial suppliers and were used as such without further purification. […] Organic solutions were dried over anhydrous Na2SO4 and concentrated with rotary evaporator at low pressure. All the reactions were routinely checked by thin-layer chromatography (TLC) on silica gel 60F254 (Merck) and visualized by using UV and iodine. Flash chromatography separations were carried out on Merck silica gel 60 (mesh 230-400) or by using automated Buchi Reveleris X2-UV with column FP Ecoflex Si 12 g. Yields were of purified products and were not optimized. ^1HNMR spectra were recorded at 400 MHz (Bruker Avance DRX-400), while ^13CNMR spectra were recorded at 101 MHz (Bruker Avance DRX-400). Chemical shifts are given in ppm (δ) relative to TMS. […] Mating constant (J) are reported in Hz. The purity of the tested compounds was evaluated by HPLC analysis using Jasco LC-4000 instrument equipped with a UV-Visible Diode Array Jasco-MD4015 (Jasco Corporation, Tokyo, Japan), and XTerra MS C18 column, 5 μm×4.6 mm×150 mm (Waters Corporation, Massachusetts, USA). Chromatograms were analyzed by ChromNAV2.0 Chromatography Data System software. […] The peak retention time (ret. time) is given in minutes. […] 1-Isobutoxy-4-methoxy-2-nitrobenzene (113). Isobutyl alcohol (0.6 mL, 6.43 mmol) was added, under nitrogen atmosphere at 0° C., to a suspension of NaH (0.26 g, 6.43 mmol) in dry DMF. After 15 minutes, 1-fluoro-4-methoxy-2-nitrobenzene 112 (1 g, 5.84 mmol) was also added and the reaction mixture was stirred at 80° C. for 4 h. […] (2-Isobutoxy-5-methoxyphenyl)amine (114). Zn (1.57 g, 24 mmol) and NH4C1 (2.45 g, 40 mmol) were added to a solution of 113 (0.46 g, 2 mmol) in acetone/H2O (50 mL, ratio 5:1). The reaction mixture was stirred at 60° C. for 3 h and, then, it was filtered over celite. […] N-(2,5-diethoxyphenyl)thiourea (55). […] N-(2-isobutoxy-5-methoxyphenyl)thiourea (115). […] A solution of Br2 (0.2 mL, 3.3 mmol) in CHCl3 (5 mL) was slowly added to a suspension of 45 (0.6 g, 3.3 mmol) in CHCl3 (13 mL), at 0° C. […]

PARP2 = target: T2, PARP2 (Homo sapiens, UniProt Q9UGN5); assay: biochemical; type: biochemical
T2 construct: made in house
Experimental: All starting materials, reagents, and solvents were purchased from common commercial suppliers and were used as such without further purification. […] Organic solutions were dried over anhydrous Na2SO4 and concentrated with rotary evaporator at low pressure. All the reactions were routinely checked by thin-layer chromatography (TLC) on silica gel 60F254 (Merck) and visualized by using UV and iodine. Flash chromatography separations were carried out on Merck silica gel 60 (mesh 230-400) or by using automated Buchi Reveleris X2-UV with column FP Ecoflex Si 12 g. Yields were of purified products and were not optimized. ^1HNMR spectra were recorded at 400 MHz (Bruker Avance DRX-400), while ^13CNMR spectra were recorded at 101 MHz (Bruker Avance DRX-400). Chemical shifts are given in ppm (δ) relative to TMS. […] Mating constant (J) are reported in Hz. The purity of the tested compounds was evaluated by HPLC analysis using Jasco LC-4000 instrument equipped with a UV-Visible Diode Array Jasco-MD4015 (Jasco Corporation, Tokyo, Japan), and XTerra MS C18 column, 5 μm×4.6 mm×150 mm (Waters Corporation, Massachusetts, USA). Chromatograms were analyzed by ChromNAV2.0 Chromatography Data System software. […] The peak retention time (ret. time) is given in minutes. […] 1-Isobutoxy-4-methoxy-2-nitrobenzene (113). Isobutyl alcohol (0.6 mL, 6.43 mmol) was added, under nitrogen atmosphere at 0° C., to a suspension of NaH (0.26 g, 6.43 mmol) in dry DMF. After 15 minutes, 1-fluoro-4-methoxy-2-nitrobenzene 112 (1 g, 5.84 mmol) was also added and the reaction mixture was stirred at 80° C. for 4 h. […] (2-Isobutoxy-5-methoxyphenyl)amine (114). Zn (1.57 g, 24 mmol) and NH4C1 (2.45 g, 40 mmol) were added to a solution of 113 (0.46 g, 2 mmol) in acetone/H2O (50 mL, ratio 5:1). The reaction mixture was stirred at 60° C. for 3 h and, then, it was filtered over celite. […] N-(2,5-diethoxyphenyl)thiourea (55). […] N-(2-isobutoxy-5-methoxyphenyl)thiourea (115). […] A solution of Br2 (0.2 mL, 3.3 mmol) in CHCl3 (5 mL) was slowly added to a suspension of 45 (0.6 g, 3.3 mmol) in CHCl3 (13 mL), at 0° C. The reaction mixture was stirred at r.t. for 4 h and, then, a 10% solution of Na2SO3 in water was added to the mixture. […] 4,7-Diethoxy-1,3-benzothiazol-2-amine (66). […] 4-Isobutoxy-7-methoxy-1,3-benzothiazol-2-amine (116). […] Hydrazine hydrate (0.23 mL, 4.77 mmol) and CH3COOH (0.12 mL, 2.1 mmol) were added to a suspension of 56 (0.29 g, 1.59 mmol) in ethylene glycol (8 mL), and the reaction mixture was stirred for 24 h at 125° C. […] 6-Ethyl-2-hydrazino-1,3-benzothiazole (69). […] 6-Ispropyl-2-hydrazino-1,3-benzothiazole (70). […] 2-Hydrazino-4,7-dimethoxy-1,3-benzothiazole (73). […] 2-Hydrazino-5,7-dimethoxy-1,3-benzothiazole (75). […] 2-Hydrazino-4,7-Diethoxy-1,3-benzothiazole (77). […] 2-Hydrazino-5-methyl[1,3]thiazolo[5,4-b]pyridine (100). […] A solution of 67 (0.13 g, 0.65 mmol) in formic acid (5 mL) was refluxed for 10 h. The reaction mixture was then poured into ice/water and the pH was neutralized using a saturated solution of NaHCO3.

T2 sequence (Q9UGN5 whole entry): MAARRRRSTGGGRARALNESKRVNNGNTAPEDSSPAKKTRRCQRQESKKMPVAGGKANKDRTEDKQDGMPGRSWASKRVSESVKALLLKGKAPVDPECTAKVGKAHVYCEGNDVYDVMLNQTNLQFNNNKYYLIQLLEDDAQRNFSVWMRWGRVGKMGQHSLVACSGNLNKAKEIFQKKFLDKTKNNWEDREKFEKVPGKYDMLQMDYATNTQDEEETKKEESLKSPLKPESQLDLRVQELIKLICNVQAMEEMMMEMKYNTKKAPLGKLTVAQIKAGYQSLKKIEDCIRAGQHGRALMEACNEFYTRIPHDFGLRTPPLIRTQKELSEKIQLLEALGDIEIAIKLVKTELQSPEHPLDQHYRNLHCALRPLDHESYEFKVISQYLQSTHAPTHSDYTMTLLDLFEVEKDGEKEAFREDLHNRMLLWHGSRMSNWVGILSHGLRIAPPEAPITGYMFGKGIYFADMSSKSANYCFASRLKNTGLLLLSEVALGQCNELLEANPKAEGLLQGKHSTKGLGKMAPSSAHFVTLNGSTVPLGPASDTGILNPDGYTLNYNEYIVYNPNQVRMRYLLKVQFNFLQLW

Compound | pIC50 (TNKS1) | pIC50 (PARP2; NAD+ consumption assay, > less than 50% inhibition at highest concentration, >> no inhibition) | pIC50 (PARP2; NAD+ consumption assay) | pIC50 (PARP2) | PARP2 pIC50 ± SEM (PARP2)
Cc1ccc2c(c1)sc1nnc(N)n12 [Compound 22, 7-Methyl[1,2,4]triazolo[3,4-b][1,3]benzothiazol-3-amine] | 5.68 | – | – | – | –
COc1ccc(OC)c2c1sc1nnc(N)n12 [Compound 28, 5,8-Dimethoxy[1,2,4]triazolo[3,4-b][1,3]benzothiazol-3-amine] | 5.27 | 5.00 | – | – | –
Nc1nnc2sc3cc(O)ccc3n12 [Compound 109, 3-Amino[1,2,4]triazolo[3,4-b][1,3]benzothiazol-7-ol] | – | – | 8.00 to 8.30 | – | –
Oc1ccc2c(c1)sc1nncn12 [Compound 10] | 5.80 | – | – | 7.36 | (7.44 ± 0.12)
